Source: PubChem BioAssay (NCI)
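Growth conditions: 96-well plates. Treatment: test compound, 48 hours, 5 concentrations. Analysis: linear interpolation between bracketing concentrations; unreached endpoints set to highest concentration. Abbreviation: GI50, concentration required for 50% inhibition of growth. TGI denotes the concentration required for complete inhibition of growth.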

How the values were obtained:
Assay in all cases: NCI tumour cell line growth inhibition, 48 h
SK-OV-3 ovarian = system: SK-OV-3 ovarian
HL-60(TB) leukemia = system: HL-60(TB) leukemia
SK-MEL-5 melanoma = system: SK-MEL-5 melanoma
OVCAR-3 ovarian = system: OVCAR-3 ovarian
NCI-H226 lung = system: NCI-H226 lung
A498 renal = system: A498 renal
HS 578T breast = system: HS 578T breast
HCC-2998 colon = system: HCC-2998 colon
NCI-H522 lung = system: NCI-H522 lung
T-47D breast = system: T-47D breast

Row | SMILES | GI50 (SK-OV-3 ovarian) | TGI (SK-OV-3 ovarian) | GI50 (HL-60(TB) leukemia) | TGI (HL-60(TB) leukemia) | GI50 (SK-MEL-5 melanoma) | TGI (SK-MEL-5 melanoma) | GI50 (OVCAR-3 ovarian) | TGI (OVCAR-3 ovarian) | GI50 (NCI-H226 lung) | TGI (NCI-H226 lung) | GI50 (A498 renal) | TGI (A498 renal) | GI50 (HS 578T breast) | TGI (HS 578T breast) | GI50 (HCC-2998 colon) | TGI (HCC-2998 colon) | GI50 (NCI-H522 lung) | TGI (NCI-H522 lung) | GI50 (T-47D breast) | TGI (T-47D breast)
1 | COc1cc(/C=C/c2cc(/C=C/c3ccc(O)c(OC)c3)n(C(=O)Nc3ccc(Cl)cc3)n2)ccc1O | 0.426 µM | 1.8 µM | 0.292 µM | 0.982 µM | 0.306 µM | 1.25 µM | 0.329 µM | 1.07 µM | 2.16 µM | 7.92 µM | 1.84 µM | 5.13 µM | 0.732 µM | 5.63 µM | 1.68 µM | 6.01 µM | 0.215 µM | 0.802 µM | 1.25 µM | 4.17 µM
2 | COc1cc(C2C3=C(COC3=O)N(CCO)c3cc4c(cc32)OCO4)cc(OC)c1O (stereo not given) | 2.03 µM | > 26.7 µM | 1.32 µM | 3.26 µM | 0.832 µM | 3.42 µM | 0.982 µM | 2.22 µM | 3.72 µM | > 50 µM | 1.16 µM | 3.92 µM | 1.3 µM | 4.59 µM | 1.53 µM | 4.65 µM | 0.0267 µM | 0.289 µM | 1.97 µM | > 50 µM
3 | CC(=O)c1cc(C(=O)c2ccc3c(c2)Sc2ccccc2N3)c2c(C)cccn12 | 0.266 µM | 10.5 µM | 0.296 µM | 0.977 µM | 0.259 µM | 4.56 µM | 0.261 µM | 0.838 µM | 1.95 µM | > 52.3 µM | 0.141 µM | 1.9 µM | 0.266 µM | > 36.3 µM | 1.65 µM | > 100 µM | 0.0328 µM | 0.199 µM | 0.314 µM | > 68.5 µM
4 | Cc1cc(Nc2cc(N3CCN(C)CC3)nc(Sc3ccc(NC(=O)C4CC4)cc3)n2)n[nH]1 | > 10 µM | > 10 µM | 0.283 µM | > 10 µM | 3.19 µM | > 10 µM | 3.46 µM | > 10 µM | 0.737 µM | > 10 µM | 1.74 µM | 8.38 µM | 3.46 µM | > 10 µM | 5.66 µM | > 10 µM | 4.16 µM | > 10 µM | > 10 µM | > 10 µM
5 | Cc1cccc(NC(=O)/C=C/c2ccc([N+](=O)[O-])cc2)c1 |  | > 61.5 µM |  | > 24.8 µM |  | > 51 µM |  | 27.6 µM |  | > 72 µM |  | > 100 µM |  | > 87 µM |  | 32.7 µM |  | > 53.9 µM |  | > 55.9 µM
6 | O=C1c2ccccc2C(=O)c2sc(Nc3ccccc3Cl)nc21 |  | 33.7 µM |  | 4.18 µM |  | 16.4 µM |  | 25.8 µM |  | 28.6 µM |  | 32.2 µM |  | 80.4 µM |  | 34.9 µM |  | 9.61 µM |  | 34.5 µM
7 | C#COc1cccc(Nc2ncnc3cc(NC(=O)[C@H](C)Cl)ccc23)c1 | 13 µM | > 62.5 µM | 1.1 µM | 3.19 µM | 1.39 µM | 3.54 µM | 2.17 µM | > 62.5 µM | 24.6 µM | > 62.5 µM | 1.73 µM | 34.5 µM | 2.51 µM | > 62.5 µM | 5.71 µM | > 62.5 µM | 1.67 µM | 8.29 µM | 19.3 µM | > 62.5 µM
8 | O=C(NCc1ccco1)c1cccc(NC2=C(Cl)C(=O)N(Cc3ccccc3)C2=O)c1 | 45.8 µM | > 100 µM | 5.52 µM | 22.3 µM | 5.26 µM | 23.3 µM | 2.44 µM | 7.71 µM | 12.7 µM | 62.7 µM | 17.2 µM | 50.8 µM | 15.4 µM | > 100 µM | 10.8 µM | 25.6 µM | 2.84 µM | 20.8 µM | 23.1 µM | > 100 µM
9 | Nc1nc(=O)n([C@@H]2CS[C@H](CO)O2)cc1F | > 100 µM | > 100 µM | > 100 µM | > 100 µM | > 100 µM | > 100 µM | > 100 µM | > 100 µM | > 100 µM | > 100 µM | > 100 µM | > 100 µM | > 100 µM | > 100 µM | > 100 µM | > 100 µM | > 100 µM | > 100 µM | > 100 µM | > 100 µM
10 | COc1ccc(C2C=C(c3ccc(Cl)cc3)N=C3SC=C(C)N32)c(Br)c1 (stereo not given) | 3.57 µM | 12.6 µM | 3.85 µM | 51.5 µM | 2.8 µM | 11.2 µM | 2.36 µM | 5.48 µM | 11.4 µM | > 100 µM | 4.18 µM | 16.2 µM | 2.19 µM | 7.5 µM | 4.43 µM | 14.6 µM | 2.96 µM | 9.29 µM | 3.45 µM | 21.5 µM
